Measured values published in article PMC9073274, “The toxic effects of alizarin red S on catalase at the molecular level” (RSC Advances, 2019).

How the values were obtained:
[1] = molecular target: T1, CAT (catalase from bovine liver) (Bos taurus, UniProt P00432); assay: H2O2 decomposition, absorbance at […] nm; type: biochemical
T1 construct: native commercial enzyme from bovine liver (Beijing Solarbio); heme homotetramer, 506 residues per subunit
T1 sequence (P00432 2-527): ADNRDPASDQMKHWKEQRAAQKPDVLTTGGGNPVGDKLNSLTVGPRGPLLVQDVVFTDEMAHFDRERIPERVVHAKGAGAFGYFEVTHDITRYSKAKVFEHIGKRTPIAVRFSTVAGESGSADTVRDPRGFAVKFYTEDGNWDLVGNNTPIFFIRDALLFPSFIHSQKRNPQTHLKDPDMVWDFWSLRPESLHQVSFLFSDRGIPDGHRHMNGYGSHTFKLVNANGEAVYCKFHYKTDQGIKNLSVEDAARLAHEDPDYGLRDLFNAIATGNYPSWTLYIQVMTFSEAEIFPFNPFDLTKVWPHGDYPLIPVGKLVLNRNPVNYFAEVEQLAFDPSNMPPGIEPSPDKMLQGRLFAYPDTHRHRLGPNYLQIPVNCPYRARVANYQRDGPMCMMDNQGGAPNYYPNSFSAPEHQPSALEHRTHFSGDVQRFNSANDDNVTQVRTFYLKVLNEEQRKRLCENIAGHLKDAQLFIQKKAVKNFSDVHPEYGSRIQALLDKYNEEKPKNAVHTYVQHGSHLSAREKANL

[2] = molecular target: T1, CAT (catalase from bovine liver); assay: isothermal titration calorimetry, one-site model; type: binding; settings: read-out: K (M^-1)
Excerpt: isothermal titration calorimetry, one-site model on CAT (catalase from bovine liver)

Question: Which inhibition at 5 µM [1] does the source give for `O=C1c2ccccc2C(=O)c2c1cc(S(=O)(=O)O)c(O)c2O` [Alizarin red S] here?
Answer: 23.8%

Question: What about the Kd [2] of the same molecule?
Answer: 39.2 µM
